# Experimental data: patent US11649255B2, “Indazoles as hematopoietic progenitor kinase 1 (HPK1) inhibitors and methods using same” (1st Biotherapeutics, Inc., priority 2020, dated 2023)
# Biological target: recombinant human HPK1 (Homo sapiens (Human), UniProt Q92918)
# Test: HPK1 kinase assay (ADP-Glo)
# Assay type: biochemical
# Details: 25 μM ATP, MBP substrate
# How it was run: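 Activity was read as ADP formed, detected by ADP-Glo luminescence after the reaction of 5 ng recombinant human HPK1 with MBP and ATP (stocks 0.5 μg/μl and 25 μM) for 40 min at 30 °C. Buffer was Tris pH 7.5 with MgCl2, BSA and DTT, with compound in 0.5% DMSO. IC50 came from inhibition curves.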
# recombinant human HPK1, sequence (Q92918 whole entry): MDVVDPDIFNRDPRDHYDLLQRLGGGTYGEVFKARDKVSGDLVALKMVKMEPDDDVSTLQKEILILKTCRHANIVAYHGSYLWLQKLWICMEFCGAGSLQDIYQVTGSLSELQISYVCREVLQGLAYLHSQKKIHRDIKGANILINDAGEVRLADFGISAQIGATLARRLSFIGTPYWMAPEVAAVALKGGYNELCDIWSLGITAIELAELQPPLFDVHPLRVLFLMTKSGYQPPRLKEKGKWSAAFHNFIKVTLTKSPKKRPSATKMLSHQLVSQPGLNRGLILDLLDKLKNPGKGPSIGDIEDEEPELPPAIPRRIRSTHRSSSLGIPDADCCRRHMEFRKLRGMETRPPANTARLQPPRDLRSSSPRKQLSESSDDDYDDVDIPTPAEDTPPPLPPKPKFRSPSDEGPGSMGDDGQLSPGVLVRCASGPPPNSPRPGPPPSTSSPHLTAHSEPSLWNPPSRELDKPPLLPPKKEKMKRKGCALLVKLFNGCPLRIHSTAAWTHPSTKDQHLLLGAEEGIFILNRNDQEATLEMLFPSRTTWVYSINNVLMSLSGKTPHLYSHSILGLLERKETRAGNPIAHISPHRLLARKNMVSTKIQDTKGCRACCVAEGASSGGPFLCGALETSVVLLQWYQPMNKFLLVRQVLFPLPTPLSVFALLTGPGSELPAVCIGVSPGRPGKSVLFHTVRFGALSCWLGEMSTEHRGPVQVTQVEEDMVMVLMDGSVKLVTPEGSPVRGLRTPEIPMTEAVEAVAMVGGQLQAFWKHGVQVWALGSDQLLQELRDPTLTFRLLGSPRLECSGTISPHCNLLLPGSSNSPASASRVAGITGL
row,Structure (SMILES),IC50
1,"CN(C)c1c(F)c(C(F)(F)F)c(-c2ccc3nc(NC(=O)[C@@H]4C[C@@H]4F)sc3c2)c2cn[nH]c12 [Example 130, (1S,2S)-N-(6-(7-(dimethylamino)-6-fluoro-5-(trifluoromethyl)-1H-indazol-4-yl)benzo[d]thiazol-2-yl)-2-fluorocyclopropane-1-carboxamide]",< 0.1 µM
2,"CC(=O)c1c(F)c(C)c(-c2ccc3nc(NC(=O)[C@@H]4C[C@@H]4F)sc3c2)c2cn[nH]c12 [Example 131, (1S,2S)-N-(6-(7-acetyl-6-fluoro-5-methyl-1H-indazol-4-yl)benzo[d]thiazol-2-yl)-2-fluorocyclopropane-1-carboxamide]",0.101 to 0.5 µM
3,"CNC(=O)c1c(F)c(C)c(-c2ccc3nc(NC(=O)[C@@H]4C[C@@H]4F)sc3c2)c2cn[nH]c12 [Example 132, 6-fluoro-4-(2-((1S,2S)-2-fluorocyclopropane-1-carboxamido)benzo[d]thiazol-6-yl)-N,5-dimethyl-1H-indazole-7-carboxamide]",0.101 to 0.5 µM
4,"CCN(C)c1c(F)c(Cl)c(-c2ccc3nc(NC(=O)[C@@H]4C[C@@H]4F)sc3c2)c2cn[nH]c12 [Example 133, (1S,2S)-N-(6-(5-chloro-7-(ethyl(methyl)amino)-6-fluoro-1H-indazol-4-yl)benzo[d]thiazol-2-yl)-2-fluorocyclopropane-1-carboxamide]",< 0.1 µM
5,"NC(=O)c1c(F)c(Cl)c(-c2ccc3nc(NC(=O)[C@@H]4C[C@@H]4F)sc3c2)c2cn[nH]c12 [Example 135, 5-chloro-6-fluoro-4-(2-((1S,2S)-2-fluorocyclopropane-1-carboxamido)benzo[d]thiazol-6-yl)-1H-indazole-7-carboxamide]",> 1 µM
6,"CCc1c(F)c(N(C)CC)c2[nH]ncc2c1-c1ccc2nc(NC(=O)[C@@H]3C[C@@H]3F)sc2c1 [Example 136, (1S,2S)-N-(6-(5-ethyl-7-(ethyl(methyl)amino)-6-fluoro-1H-indazol-4-yl)benzo[d]thiazol-2-yl)-2-fluorocyclopropane-1-carboxamide]",< 0.1 µM
7,"CCN(C)c1c(F)c(SC)c(-c2ccc3nc(NC(=O)[C@@H]4C[C@@H]4F)sc3c2)c2cn[nH]c12 [Example 138, (1S,2S)-N-(6-(7-(ethyl(methyl)amino)-6-fluoro-5-(methylthio)-1H-indazol-4-yl)benzo[d]thiazol-2-yl)-2-fluorocyclopropane-1-carboxamide]",< 0.1 µM
8,"CN(C)c1c(F)cc(-c2ccc3nc(NC(=O)[C@@H]4C[C@@H]4F)sc3c2)c2cn[nH]c12 [Example 139, (1S,2S)-N-(6-(7-(dimethylamino)-6-fluoro-1H-indazol-4-yl)benzo[d]thiazol-2-yl)-2-fluorocyclopropane-1-carboxamide]",< 0.1 µM
9,"O=C(Nc1nc2ccc(-c3cc(F)c(OC(F)(F)F)c4[nH]ncc34)cc2s1)[C@@H]1C[C@@H]1F [Example 140, (1S,2S)-2-fluoro-N-(6-(6-fluoro-7-(trifluoromethoxy)-1H-indazol-4-yl)benzo[d]thiazol-2-yl)cyclopropane-1-carboxamide]",> 1 µM
10,"CSc1c(F)cc(-c2ccc3nc(NC(=O)[C@@H]4C[C@@H]4F)sc3c2)c2cn[nH]c12 [Example 141, (1S,2S)-2-fluoro-N-(6-(6-fluoro-7-(methylthio)-1H-indazol-4-yl)benzo[d]thiazol-2-yl)cyclopropane-1-carboxamide]",> 1 µM
11,"CSc1ccc(-c2ccc3nc(NC(=O)[C@@H]4C[C@@H]4F)sc3c2)c2cn[nH]c12 [Example 142, (1S,2S)-2-fluoro-N-(6-(7-(methylthio)-1H-indazol-4-yl)benzo[d]thiazol-2-yl)cyclopropane-1-carboxamide]",> 1 µM
12,"CN(C)C(=O)c1c(F)cc(-c2ccc3nc(NC(=O)[C@@H]4C[C@@H]4F)sc3c2)c2cn[nH]c12 [Example 144, 6-fluoro-4-(2-((1S,2S)-2-fluorocyclopropane-1-carboxamido)benzo[d]thiazol-6-yl)-N,N-dimethyl-1H-indazole-7-carboxamide]",0.101 to 0.5 µM
13,"CN(C)C(=O)c1c(F)cc2[nH]ncc2c1-c1ccc2nc(NC(=O)[C@@H]3C[C@@H]3F)sc2c1 [Example 145, 6-fluoro-4-(2-((1S,2S)-2-fluorocyclopropane-1-carboxamido)benzo[d]thiazol-6-yl)-N,N-dimethyl-1H-indazole-5-carboxamide]",> 1 µM
14,"Cc1ccc2[nH]ncc2c1-c1ccc2nc(NC(=O)[C@@H]3C[C@@H]3F)sc2n1 [Example 146, (1S,2S)-2-fluoro-N-(5-(5-methyl-1H-indazol-4-yl)thiazolo[5,4-b]pyridin-2-yl)cyclopropane-1-carboxamide]",0.101 to 0.5 µM
15,"Cc1c(F)cc2[nH]ncc2c1-c1ccc2nc(NC(=O)[C@@H]3C[C@@H]3F)sc2n1 [Example 147, (1S,2S)-2-fluoro-N-(5-(6-fluoro-5-methyl-1H-indazol-4-yl)thiazolo[5,4-b]pyridin-2-yl)cyclopropane-1-carboxamide]",< 0.1 µM
16,"CSc1n[nH]c2cc(F)c(C)c(-c3ccc4nc(NC(=O)[C@@H]5C[C@@H]5F)sc4n3)c12 [Example 148, (1S,2S)-2-fluoro-N-(5-(6-fluoro-5-methyl-3-(methylthio)-1H-indazol-4-yl)thiazolo[5,4-b]pyridin-2-yl)cyclopropane-1-carboxamide]",> 1 µM
17,"CCOc1c(F)c(Cl)c(-c2ccc3nc(NC(=O)[C@@H]4C[C@@H]4F)sc3n2)c2cn[nH]c12 [Example 149, (1S,2S)—N-(5-(5-chloro-7-ethoxy-6-fluoro-1H-indazol-4-yl)thiazolo[5,4-b]pyridin-2-yl)-2-fluorocyclopropane-1-carboxamide]",< 0.1 µM
18,"CC(C)c1c(F)cc2[nH]ncc2c1-c1ccc2nc(NC(=O)[C@@H]3C[C@@H]3F)sc2n1 [Example 150, (1S,2S)-2-fluoro-N-(5-(6-fluoro-5-isopropyl-1H-indazol-4-yl)thiazolo[5,4-b]pyridin-2-yl)cyclopropane-1-carboxamide]",< 0.1 µM
19,"Nc1c(F)cc2[nH]ncc2c1-c1ccc2nc(NC(=O)[C@@H]3C[C@@H]3F)sc2n1 [Example 151, (1S,2S)-N-(5-(5-amino-6-fluoro-1H-indazol-4-yl)thiazolo[5,4-b]pyridin-2-yl)-2-fluorocyclopropane-1-carboxamide]",> 1 µM
20,"O=C(Nc1nc2ccc(-c3c(Cl)c(F)cc4[nH]ncc34)nc2s1)[C@@H]1C[C@@H]1F [Example 153, (1S,2S)-N-(5-(5-chloro-6-fluoro-1H-indazol-4-yl)thiazolo[5,4-b]pyridin-2-yl)-2-fluorocyclopropane-1-carboxamide]",< 0.1 µM
21,"CCN(CC)c1c(F)c(Cl)c(-c2ccc3nc(NC(=O)[C@@H]4C[C@@H]4F)sc3n2)c2cn[nH]c12 [Example 154, (1S,2S)-N-(5-(5-chloro-7-(diethylamino)-6-fluoro-1H-indazol-4-yl)thiazolo[5,4-b]pyridin-2-yl)-2-fluorocyclopropane-1-carboxamide]",< 0.1 µM
22,"COc1c(F)cc2[nH]ncc2c1-c1ccc2nc(NC(=O)[C@@H]3C[C@@H]3F)sc2n1 [Example 155, (1S,2S)-2-fluoro-N-(5-(6-fluoro-5-methoxy-1H-indazol-4-yl)thiazolo[5,4-b]pyridin-2-yl)cyclopropane-1-carboxamide]",< 0.1 µM
23,"N#Cc1c(F)cc2[nH]ncc2c1-c1ccc2nc(NC(=O)[C@@H]3C[C@@H]3F)sc2n1 [Example 157, (1S,2S)-N-(5-(5-cyano-6-fluoro-1H-indazol-4-yl)thiazolo[5,4-b]pyridin-2-yl)-2-fluorocyclopropane-1-carboxamide]",0.101 to 0.5 µM
24,"O=C(Nc1nc2ccc(-c3c(C4CC4)c(F)cc4[nH]ncc34)nc2s1)[C@@H]1C[C@@H]1F [Example 158, (1S,2S)-N-(5-(5-cyclopropyl-6-fluoro-1H-indazol-4-yl)thiazolo[5,4-b]pyridin-2-yl)-2-fluorocyclopropane-1-carboxamide]",0.101 to 0.5 µM
25,"CCNc1c(F)c(Cl)c(-c2ccc3nc(NC(=O)[C@@H]4C[C@@H]4F)sc3n2)c2cn[nH]c12 [Example 159, (1S,2S)-N-(5-(5-chloro-7-(ethylamino)-6-fluoro-1H-indazol-4-yl)thiazolo[5,4-b]pyridin-2-yl)-2-fluorocyclopropane-1-carboxamide]",< 0.1 µM
26,"O=C(Nc1nc2ccc(-c3c(Br)c(F)cc4[nH]ncc34)nc2s1)[C@@H]1C[C@@H]1F [Example 160, (1S,2S)-N-(5-(5-bromo-6-fluoro-1H-indazol-4-yl)thiazolo[5,4-b]pyridin-2-yl)-2-fluorocyclopropane-1-carboxamide]",< 0.1 µM
27,"Cc1c(F)c(SCCO)c2[nH]ncc2c1-c1ccc2nc(NC(=O)[C@@H]3C[C@@H]3F)sc2n1 [Example 163, (1S,2S)-2-fluoro-N-(5-(6-fluoro-7-((2-hydroxyethyl)thio)-5-methyl-1H-indazol-4-yl)thiazolo[5,4-b]pyridin-2-yl)cyclopropane-1-carboxamide]",< 0.1 µM
28,"C[S+]([O-])c1c(F)cc2[nH]ncc2c1-c1ccc2nc(NC(=O)[C@@H]3C[C@@H]3F)sc2n1 (stereo partly drawn) [Example 164, (1S,2S)-2-fluoro-N-(5-(6-fluoro-5-(methylsulfinyl)-1H-indazol-4-yl)thiazolo[5,4-b]pyridin-2-yl)cyclopropane-1-carboxamide]",> 1 µM
29,"CCOC(=O)CSc1c(F)c(CC)c(-c2ccc3nc(NC(=O)[C@@H]4C[C@@H]4F)sc3n2)c2cn[nH]c12 [Example 165, ethyl 2-((5-ethyl-6-fluoro-4-(2-((1S,2S)-2-fluorocyclopropane-1-carboxamido)thiazolo[5,4-b]pyridin-5-yl)-1H-indazol-7-yl)thio)acetate]",< 0.1 µM
30,"CCc1c(F)c(SCC(=O)N(C)C)c2[nH]ncc2c1-c1ccc2nc(NC(=O)[C@@H]3C[C@@H]3F)sc2n1 [Example 166, (1S,2S)-N-(5-(7-((2-(dimethylamino)-2-oxoethyl)thio)-5-ethyl-6-fluoro-1H-indazol-4-yl)thiazolo[5,4-b]pyridin-2-yl)-2-fluorocyclopropane-1-carboxamide]",< 0.1 µM
